Measured values as given in patent publication US20050080113A1, “Medicinal compositions” (priority 2001, published 2005).

Compared with `Cc1cccc(-c2nc(-c3ccccc3Cl)sc2-c2ccnc(NCc3ccccc3)c2)c1` [D 19-14, N-benzyl-N-[4 [2 (2-chlorophenyl)-4 (3 methylphenyl)-1,3 thiazol-5 yl]-2-pyridyl]amine], `CSc1ccc(-c2nc(-c3cccc(C)c3)c(-c3ccnc(NC(=O)CCc4ccccc4)c3)s2)cc1` [D 16-16, N-[4-[4-(3-methylphenyl)-2-(4-methylthiophenyl)-1,3-thiazol-5-yl]-2-pyridyl]-3-phenylpropionamide] is higher in melting point: 84 to 88 °C for the first, 174 to 175 °C for the second.

First: CCc1nc(-c2cccc(C(F)(F)F)c2)c(-c2ccnc(NC(C)=O)c2)s1 [H 82-3, N-[4 [2 ethyl-4 (3-trifluoromethylphenyl)-1,3 thiazol-5 yl]-2 pyridyl]acetamide]
Second: CCCc1cccc(-c2nc(CC)sc2-c2ccnc(NC(C)=O)c2)c1 [H 82-9, N-[4 [2 ethyl-4 (3-propylphenyl)-1,3 thiazol-5 yl]-2 pyridyl]acetamide]
The melting point of the first is higher: 146 to 147 °C for the first, 121 to 122 °C for the second.

Compared with `Cc1cccc(-c2nc(C(C)OC(=O)c3ccccc3)sc2-c2ccnc(N)c2)c1` (stereo not drawn) [H 99-2, 1 [5 (2 amino-4 pyridyl)-4-(3 methylphenyl)-1,3 thiazol-2 yl]ethyl benzoate], `CCC(=O)Nc1cc(-c2sc(C(C)OC(=O)c3ccccc3)nc2-c2cccc(C)c2)ccn1` (stereo not drawn) [H 102-5, 1 [4 (3 methylphenyl)-5-(2 propionylamino-4 pyridyl)-1,3 thiazol-2 yl]ethyl benzoate] is higher in melting point: 89 to 91 °C for the first, 102 to 103 °C for the second.

First: CC(=O)Nc1nc(-c2cccc(C)c2)c(-c2ccnc(C)c2)s1 [H 39, N-[4-(3-methylphenyl)-5-(2-methyl-4-pyridyl)-1,3-thiazol-2-yl]acetamide]
Second: COc1ncccc1C(=O)Nc1nc(-c2cccc(C)c2)c(-c2ccnc(C)c2)s1 [H 49, 2 methoxy-N-[4 (3-methylphenyl)-5 (2 methyl-4 pyridyl)-1,3 thiazol-2-yl]nicotinamide]
The melting point of the first is higher: 230 to 231 °C for the first, 169 to 170 °C for the second.

First: Cc1cccc(-c2nc(C)sc2-c2ccnc(NC(=O)Cc3ccccc3)c2)c1 [L 68-5, N-[4 [2 methyl-4 (3-methylphenyl)-1,3 thiazol-5 yl]-2 pyridyl]phenylacetamide]
Second: CCc1nc(-c2cccc(OC)c2)c(-c2ccnc(NC(=O)Cc3ccccc3)c2)s1 [L 68-10, N-[4 [2 ethyl-4 (3-methoxyphenyl)-1,3 thiazol-5 yl]-2 pyridyl)phenylacetamide]
The melting point of the first is lower: 114 to 115 °C for the first, 128 to 129 °C for the second.

Compared with `CC(C)(C)c1ccc(-c2nc(NC(=O)c3cccnc3)sc2-c2ccncc2)cc1` [23-165, N-[4 [4 (1,1 dimethylethyl)phenyl]-5 (4 pyridyl)-1,3 thiazol-2 yl]nicotinamide], `CC(C)(C)c1ccc(-c2nc(N)sc2-c2ccncc2)cc1` [23-143, [4 [4 (1,1 dimethylethyl)phenyl]-5 (4 pyridyl)-1,3 thiazol-2-yl]amine] is lower in melting point: 326 to 328 °C for the first, 254 to 257 °C for the second.

Compared with `CCC(=O)Nc1cc(-c2sc(-c3ccc(S(C)(=O)=O)cc3)nc2-c2cccc(C)c2)ccn1` [H 98-2, N-[4 [4 (3 methylphenyl)-2-(4 methylsulfonylphenyl)-1,3 thiazol-5 yl]-2 pyridyl]propionamide], `CCC(=O)Nc1cc(-c2sc(-c3ccc(SC)cc3)nc2-c2cccc(Cl)c2)ccn1` [H 30-11, N-[4 [4 (3 chlorophenyl)-2 [4 (methylthio)phenyl]-1,3 thiazol-5 yl]-2-pyridyl]propionamide] is lower in melting point: 238 to 239 °C for the first, 187 to 188 °C for the second.

Compared with `Cc1cccc(-c2nc(-c3ccccc3F)sc2-c2ccnc(C)c2)c1` [H 14-3, 2 (2 fluorophenyl)-4 (3-methylphenyl)-5 (2 methyl-4 pyridyl)-1,3 thiazole], `Cc1cccc(-c2nc(CCc3ccccc3)sc2-c2ccnc(C)c2)c1` [H 14-8, 4 (3 methylphenyl)-5 (2-methyl-4 pyridyl)-2 (2 phenylethyl)-1,3 thiazole] is lower in melting point: 73 to 74 °C for the first, 64 to 65 °C for the second.

Compared with `CCc1nc(-c2ccccc2)c(-c2ccnc(NC(=O)Cc3ccccc3)c2)s1` [L 68-9, N-[4 (2 ethyl-4 phenyl-1,3-thiazol-5 yl)-2 pyridyl]phenylacetamide], `CCc1nc(-c2ccc(C)cc2)c(-c2ccnc(NC(=O)Cc3ccccc3)c2)s1` [L 68-8, N-[4 [2 ethyl-4 (4-methylphenyl)-1,3 thiazol-5 yl]-2 pyridyl]phenylacetamide] is lower in melting point: 162 to 163 °C for the first, 128 to 129 °C for the second.

First: CC(F)(F)c1nc(-c2cccc(Cl)c2)c(-c2ccnc(N)c2)s1 [H 101-2, 4 [4 (3 chlorophenyl)-2-(1,1 difluoroethyl)-1,3 thiazol-5 yl]-2 pyridylamine]
Second: Cc1nc(-c2cccc(Cl)c2)c(-c2ccnc(N)c2)s1 [H 27-2, 4 [4 (3 chlorophenyl)-2-methyl-1,3 thiazol-5 yl]-2 pyridylamine]
The melting point of the first is lower: 131 to 132 °C for the first, 142 to 143 °C for the second.

First: CCc1nc(-c2cccc(C(=O)O)c2)c(-c2ccnc(N)c2)s1 [H 77, 3 [5 (2 amino-4 pyridyl)-2 ethyl-1,3 thiazol-4 yl]benzoic acid]
Second: CCCc1cccc(-c2nc(CC)sc2-c2ccnc(N)c2)c1 [H 20-11, 4 [2 ethyl-4 (3-propylphenyl)-1,3 thiazol-5 yl]-2 pyridylamine]
The melting point of the first is higher: 273 to 274 °C for the first, 72 to 74 °C for the second.

First: CC(=O)Nc1cc(-c2sc(C3CCNCC3)nc2-c2cccc(Cl)c2)ccn1.Cl.Cl
Second: CC(=O)Nc1cc(-c2sc(C(C)OC(=O)c3ccccc3)nc2-c2cccc(Cl)c2)ccn1 (stereo not drawn) [H 103-1, 1 [5 (2 acetylamino-4-pyridyl)-4 (3 chlorophenyl)-1,3 thiazol-2 yl]ethyl benzoate]
The melting point of the first is higher: 193 to 195 °C for the first, 152 to 154 °C for the second.

First: Nc1nc(-c2cccc(Cl)c2)c(-c2ccnc(N3CCCCC3)c2)s1 [H 35-1, [4 (3 chlorophenyl)-5 (2-piperidino-4 pyridyl)-1,3 thiazol-2 yl]amine]
Second: CSCc1nc(-c2cccc(Cl)c2)c(-c2ccnc(N)c2)s1 [H 101-1, 4 [4 (3 chlorophenyl)-2-(methylthio)methyl-1,3 thiazol-5 yl]-2 pyridylamine]
The melting point of the first is higher: 206 to 208 °C for the first, 111 to 112 °C for the second.

Compared with `Cc1cccc(-c2nc(-c3ccc(S(C)(=O)=O)cc3)sc2-c2ccnc(N3CCOCC3)c2)c1` [H 36-8, 4 (3 methylphenyl)-2 (4-methylsulfonylphenyl)-5 (2 morpholino-4 pyridyl)-1,3 thiazole], `Cc1cccc(-c2nc(-c3ccc(S(C)(=O)=O)cc3)sc2-c2ccnc(N3CCN(C)CC3)c2)c1` [H 37-5, 4 (3 methylphenyl)-5 [2-(4 methyl-1 piperazinyl)-4 pyridyl]-2 (4-methylsulfonylphenyl)-1,3 thiazole] is lower in melting point: 200 to 202 °C for the first, 153 to 154 °C for the second.

First: CSCc1nc(-c2cccc(C)c2)c(-c2ccnc(N)c2)s1 [H 113-1, 4 [4 (3 methylphenyl)-2-(methylthio)methyl-1,3 thiazol-5 yl]-2 pyridylamine]
Second: Cc1cccc(-c2ncsc2-c2ccnc(N)c2)c1 [H 27-1, 4 [4 (3 methylphenyl)-1,3-thiazol-5 yl]-2 pyridylamine]
The melting point of the first is higher: 113 to 114 °C for the first, 91 to 92 °C for the second.

First: Cc1cccc(-c2nc(N(C)C(=O)c3cccnc3)sc2-c2ccnc(NC3CCCCC3)c2)c1 [H 42-8, N-[5 (2 cyclohexylamino-4-pyridyl)-4 (3 methylphenyl)-1,3 thiazol-2 yl]-N-methylnicotinamide]
Second: Cc1cccc(-c2nc(NC(=O)Nc3ccccc3)sc2-c2ccnc(C)c2)c1 [H 53-4, N-[4 (3 methylphenyl)-5-(2 methyl-4 pyridyl)-1,3 thiazol-2 yl]-N′-phenylurea]
The melting point of the first is lower: 147 to 148 °C for the first, 168 to 169 °C for the second.

First: Cc1cc(C)cc(-c2nc(-c3ccc([S+](C)[O-])cc3)sc2-c2cc(C)nc(C)c2)c1 (stereo not drawn) [H 56-2, 4 (3,5 dimethylphenyl)-5-(2,6 dimethyl-4 pyridyl)-2 (4 methylsulfinylphenyl)-1,3-thiazole]
Second: Cc1cccc(-c2sc(NC(=O)Nc3ccccc3)nc2-c2cc(C)nc(C)c2)c1 [H 52, N-[4 (2,6 dimethyl-4 pyridyl)-5 (3 methylphenyl)-1,3 thiazol-2 yl]-N′-phenylurea]
The melting point of the first is lower: 151 to 154 °C for the first, 173 to 174 °C for the second.

Compared with `CCCNC(=O)Nc1nc(-c2cc(C)cc(C)c2)c(-c2ccncc2)s1` [23-202, N-[4 (3,5 dimethylphenyl)-5 (4 pyridyl)-1,3 thiazol-2 yl]-N′-propylurea], `CCC(=O)Nc1nc(-c2cc(C)cc(C)c2)c(-c2ccncc2)s1` [23-194, N-[4 (3,5 dimethylphenyl)-5 (4 pyridyl)-1,3 thiazol-2-yl]propionamide] is higher in melting point: 128 to 130 °C for the first, 291 to 293 °C for the second.

First: Cc1cc(C)cc(-c2nc(NC(=O)C3CCCC3)sc2-c2ccncc2)c1 [23-198, N-[4 (3,5 dimethylphenyl)-5 (4 pyridyl)-1,3 thiazol-2-yl]cyclopentanecarboxamide]
Second: Cc1cc(C)cc(-c2nc(NC(=O)c3ccncc3)sc2-c2ccncc2)c1 [Reference Example A 23-200, N-[4-(3,5-dimethylphenyl)-5-(4-pyridyl)-1,3-thiazol-2-yl]isonicotinamide]
The melting point of the first is lower: 275 to 278 °C for the first, 302 to 304 °C for the second.

First: CCC(=O)Nc1cc(-c2sc(C(C)OC(=O)c3ccccc3)nc2-c2cccc(Cl)c2)ccn1 (stereo not drawn) [H 102-6, 1 [4 (3 chlorophenyl)-5-(2 propionylamino-4 pyridyl)-1,3 thiazol-2 yl]ethyl benzoate]
Second: CCc1nc(-c2cccs2)c(-c2ccnc(NC(C)=O)c2)s1 [H 30-4, N-[4 [2 ethyl-4 (2-thienyl)-1,3 thiazol-5 yl]-2 pyridyl]acetamide]
The melting point of the first is lower: 124 to 127 °C for the first, 154 to 155 °C for the second.

First: CCc1nc(-c2ccc(F)c(C)c2)c(-c2ccnc(N)c2)s1 [H 20-9, 4 [2 ethyl-4 (4 fluoro-3-methylphenyl)-1,3 thiazol-5 yl]-2 pyridylamine]
Second: Cc1cc(C)cc(-c2nc(NC(=O)c3cnccn3)sc2-c2ccncc2)c1 [23-246, N-[4 (3,5 dimethylphenyl)-5 (4 pyridyl)-1,3 thiazol-2-yl]pyrazinecarboxamide]
The melting point of the first is lower: 134 to 135 °C for the first, 269 to 270 °C for the second.
